# Experiments:
# [1] = system: ERK1/2 phosphorylation in Panc-1 cells; test: Western ERK1/2 cell-based phosphorylation assay; parameters: species or system human; settings: at 10 μM, values in brackets < > are activation %, not inhibition
# Protocol: Cell lines: Human tumor-derived pancreatic cancer cell line Panc-1 was purchased from American Type Culture Collection and grown in complete DMEM-High Glucose, supplemented with penicillin (100 U/mL), streptomycin (100 μg/mL), and 10% heat-inactivated FBS at 37° C. in a humidified incubator with 5% CO2.
# (§1) Method: Cells were plated at 350000 cells/well density in a 12-well plate, allowed 3 hours to adhere to the plate, then starved in the appropriate medium in the presence of 0.5% FBS overnight. The small molecules to be tested were added to the cells in the final concentration of 10 μM in the presence of 0.3% DMSO for 6 hours incubation at 37° C. For IC50 value determination, serial dilutions of compounds were added to cells under the same conditions. Next, cells were stimulated with 1.5 ng/ml EGF for 15 minutes then cells were lysed with lysis buffer containing 1% Triton X-100, EDTA, and Halt™ Protease & Phosphatase Inhibitor Cocktail (Thermo Scientific). Protein concentration was assessed by BCA protein assay (Thermo Scientific). Phosphorylation level of ERK1/2 was determined by western blot.
# (§2) Western blot protocol: Equal amounts of protein (15-50 μg) were separated by SDS-PAGE and transferred to nitrocellulose membranes (Invitrogen by Thermo Fisher Scientific). The membrane was stained with Ponceau S Stain (Boston BioProducts) to verify uniform protein loading. Membranes were blocked with 10% milk and phosphorylation levels of ERK1/2 were assessed by incubating overnight at 4° C. with anti-phospho-p44/42 (Thr202/Tyr204) antibody (Cell Signaling) followed by HRP-conjugated secondary antibody (Jackson Immunoresearch, West Grove, Pa.). Bands were incubated in Amersham ECL Prime Western Blotting Detection Reagent (GE Healthcare) and visualized using the ChemiDoc MP imaging system (Bio-Rad). Protocol for Western AKT cell-based phosphorylation assay
# [2] = system: Akt phosphorylation in Panc-1 cells; test: Western AKT cell-based phosphorylation assay; parameters: species or system human; settings: at 10 μM, values in brackets < > are activation %, not inhibition
# Protocol: Human Tumor-Derived Pancreatic Cancer Cell Line Panc-1 was Purchased from
# American Type Culture Collection and grown in complete DMEM-High Glucose supplemented with penicillin (100 U/mL), streptomycin (100 μg/mL), and 10% heat-inactivated FBS at 37° C. in a humidified incubator with 5% CO2.
# as §1, with “C.” for “C. For IC50 value determination, serial dilutions of compounds were added to cells under the same conditions.”, “Akt” for “ERK1/2”
# as §2, with “Akt” for “ERK1/2”, “anti-phospho-Akt (Ser473)” for “anti-phospho-p44/42 (Thr202/Tyr204)”, “(Bio-Rad).” for “(Bio-Rad). Protocol for Western AKT cell-based phosphorylation assay”
# [3] = system: MIA-PaCa-2 pancreatic cancer cell line (KRAS G12C); test: Cell proliferation assay (CellTiter 96 Aqueous One); format: cell-based; settings: Homo sapiens; for inhibition at 10 µM: MIA PaCa-2, read-out: % inh cell proliferation (10 μM) in MIA PaCa-2
# Protocol: Cell lines: Human tumor-derived cell lines were purchased from American Type Culture Collection. Human tumor-derived pancreatic cancer cell line MIA-PACA2 (having a KRAS G12C mutation) and Panc-1 (having a KRAS G12D mutation), and Human non-small cell lung cancer (NSCLC) cell line A549 (having a KRAS G12S mutation) were grown in complete DMEM-High Glucose. Human colon cancer cell line SW-620 (having a KRAS G12V mutation) was grown in RPMI. All cell lines were supplemented with penicillin (100 U/mL), streptomycin (100 μg/mL), and 10% heat-inactivated FBS at 37° C. in a humidified incubator with 5% CO2.
# Method: Cells were plated at 2000 to 5000 cells/well density in 96-wells plate and cultured overnight. Small molecules to be tested were added to the cells in the final concentration of 10 μM in the presence of 0.3% DMSO and 10% FBS, and incubated for 2-4 days at 37° C. in a humidified incubator with 5% CO2. For IC50 value determination, serial dilutions of compounds were added to cells under the same conditions.
# Assay: At the end of the incubation period, cell viability was measured using the CellTiter 96® Aqueous One Solution Cell Proliferation Assay according to manufacturer specifications (Promega, Madison, Wis.). The percentage of small molecules inhibition of cellular proliferation was calculated from raw data.
# [4] = MIA PaCa-2, MIA-PaCa-2, 2-4 days, 10% FBS
SMILES,% inh of ERK1/2 phosphorylation in PANC-1 [1],% inh of AKT phosphorylation in PANC-1 [2],"IC50 ([3]; MIA PaCa-2, MIA PaCa-2) [µM]","IC50 [3, 4] [µM]",inhibition at 10 µM [3] [%]
"COCC1CCN(c2nc(-c3nccn3C)nc3sc(-c4ccn(C(C)C)n4)c(C)c23)C1 (racemic) [Compound 38, rac-6-(1-Isopropyl-1H-pyrazol-3-yl)-4-(3-(methoxymethyl)pyrrolidin-1-yl)-5-methyl-2-(1-methyl-1H-imidazol-2-yl)thieno[2,3-d]pyrimidine]",D (76-100% inhibition),B (26-50% inhibition),1 to 4.99,0.75 to 1,76 to 100
"COC1CCCN(c2nc(-c3nccn3C)nc3sc(-c4ccn(C(C)C)n4)c(C)c23)C1 (racemic) [Compound 40, rac-6-(1-Isopropyl-1H-pyrazol-3-yl)-4-(3-methoxypiperidin-1-yl)-5-methyl-2-(1-methyl-1H-imidazol-2-yl)thieno[2,3-d]pyrimidine]",D (76-100% inhibition),D (76-100% inhibition),< 1,,76 to 100
"COCC1COCCN1c1nc(-c2nccn2C)nc2sc(-c3ccn(C(C)C)n3)c(C)c12 (racemic) [Compound 41, rac-4-(6-(1-Isopropyl-1H-pyrazol-3-yl)-5-methyl-2-(1-methyl-1H-imidazol-2-yl)thieno[2,3-d]pyrimidin-4-yl)-3-(methoxymethyl)morpholine]",0 (0% inhibition),0 (0% inhibition),5 to 10,,51 to 75
"CO[C@H]1CC(Nc2nc(-c3nccn3C)nc3sc(-c4ccn(C(C)C)n4)c(C)c23)C[C@@H]1OC (racemic) [Compound 44, rac-N-((3S,4S)-3,4-Dimethoxycyclopentyl)-6-(1-isopropyl-1H-pyrazol-3-yl)-5-methyl-2-(1-methyl-1H-imidazol-2-yl)thieno[2,3-d]pyrimidin-4-amine]",D (76-100% inhibition),<A>,1 to 4.99,,76 to 100
"COCC1CN(c2nc(-c3nccn3C)nc3sc(-c4ccn(C(C)C)n4)c(C)c23)CCO1 (racemic) [Compound 45, rac-4-(6-(1-Isopropyl-1H-pyrazol-3-yl)-5-methyl-2-(1-methyl-1H-imidazol-2-yl)thieno[2,3-d]pyrimidin-4-yl)-2-(methoxymethyl)morpholine]",B (26-50% inhibition),<D>,5 to 10,,26 to 50
"Cc1c(-c2ccn(C(C)C)n2)sc2nc(-c3nccn3C)nc(NCCC3CCC(=O)N3)c12 (racemic) [Compound 56, rac-5-(2-((6-(1-Isopropyl-1H-pyrazol-3-yl)-5-methyl-2-(1-methyl-1H-imidazol-2-yl)thieno[2,3-d]pyrimidin-4-yl)amino)ethyl)pyrrolidin-2-one]",0 (0% inhibition),0 (0% inhibition),> 10,,1 to 25
"CO[C@@H]1CC[C@H]1CNc1nc(-c2nccn2C)nc2sc(-c3ccn(C(C)C)n3)c(C)c12 (racemic) [Compound 61, rac-6-(1-Isopropyl-1H-pyrazol-3-yl)-N-(((1S,2R)-2-methoxycyclobutyl)methyl)-5-methyl-2-(1-methyl-1H-imidazol-2-yl)thieno[2,3-d]pyrimidin-4-amine]",D (76-100% inhibition),0 (0% inhibition),< 1,,76 to 100
"Cc1c(-c2ccn(C(C)C)n2)sc2nc(-c3nccn3C)nc(N3CCC(COC(C)C)C3)c12 (racemic) [Compound 62, rac-4-(3-(Isopropoxymethyl)pyrrolidin-1-yl)-6-(1-isopropyl-1H-pyrazol-3-yl)-5-methyl-2-(1-methyl-1H-imidazol-2-yl)thieno[2,3-d]pyrimidine]",D (76-100% inhibition),B (26-50% inhibition),< 1,,76 to 100
"COC[C@@H]1CC[C@@H]1CNc1nc(-c2nccn2C)nc2sc(-c3ccn(C(C)C)n3)c(C)c12 (racemic) [Compound 63, rac-6-(1-Isopropyl-1H-pyrazol-3-y)-N-(((1S,2R)-2-(methoxymethyl)cyclobutyl)methyl)-5-methyl-2-(1-methyl-1H-imidazol-2-yl)thieno[2,3-d]pyrimidin-4-amine]",D (76-100% inhibition),C (51-75% inhibition),< 1,< 0.4,76 to 100
"CO[C@H]1CC[C@@H](Nc2nc(-c3ccccn3)nc3sc(-c4ccn(C(C)C)n4)c(C)c23)C1 (racemic) [Compound 69, Rac-6-(1-isopropyl-1H-pyrazol-3-yl)-N-((1R,3S)-3-methoxycyclopentyl)-5-methyl-2-(pyridine-2-yl)thieno[2,3-d]pyrimidin-4-amine]",D (76-100% inhibition),D (76-100% inhibition),5 to 10,,76 to 100
"COC1CCCN(c2nc(-c3ccccn3)nc3sc(-c4ccn(C(C)C)n4)c(C)c23)C1 (racemic) [Compound 70, Rac-6-(1-Isopropyl-1H-pyrazol-3-yl)-4-(3-methoxypiperidin-1-yl)-5-methyl-2-(pyridin-2-yl)thieno[2,3-d]pyrimidine]",0 (0% inhibition),0 (0% inhibition),5 to 10,,76 to 100
"COCC1CCN(c2nc(-c3ccccn3)nc3sc(-c4ccn(C(C)C)n4)c(C)c23)C1 (racemic) [Compound 71, Rac-6-(1-Isopropyl-1H-pyrazol-3-yl)-4-(3-(methoxymethyl)pyrrolidin-1-yl)-5-methyl-2-(pyridin-2-yl)thieno[2,3-d]pyrimidine]",D (76-100% inhibition),D (76-100% inhibition),5 to 10,,76 to 100
"CO[C@H]1CC[C@@H](Nc2nc(-c3nccn3C)nc3sc(-c4ccn(C(C)C)n4)c(C(F)(F)F)c23)C1 (racemic) [Compound 73, Rac-6-(1-isopropyl-1H-pyrazol-3-yl)-N-((1R,3S)-3-methoxycyclopentyl)-2-(1-methyl-1H-imidazol-2-yl)-5-(trifluoromethyl)thieno[2,3-d]pyrimidin-4-amine]",D (76-100% inhibition),A (1-25% inhibition),1 to 4.99,,76 to 100

# From patent US20230227466A1, “SUBSTITUTED THIENOPYRIMIDINES THAT INTERACT WITH THE RAS SUPERFAMILY FOR THE TREATMENT OF CANCERS, INFLAMMATORY DISEASES, RASOPATHIES, AND FIBROTIC DISEASE” (SHY Therapeutics, LLC, priority 2020, published 2023)
